Key:
[1] = tested on: HBsAg; test: microbe, parasite or virus in culture; conditions: Hepatitis B virus, read-out: average inhibitory rate for HBsAg
[2] = tested on: HBeAg; test: microbe, parasite or virus in culture; conditions: Hepatitis B virus, read-out: average inhibitory rate for HBeAg

CC(C)=CCC(OC(=O)C=C(C)C)C1=CC(=O)c2c(O)ccc(O)c2C1=O (stereo not drawn) [β,β-dimethylacrylshikonin]
inhibition at 30 µg/mL [1]: 96.3%
inhibition at 30 µg/mL [2]: 91.6%
